The nature of data set [1]: Stopped-flow kinetic analysis of tetrazines with eq-5-hydroxy-trans-cyclooctene in PBS buffer at 25° C. The conditions noted are these: for k2, second order rate constant / kobs: PBS pH 7.4, 25° C.; for k2, second order rate constant: linear regression of kobs; for kobs: 0.025 mM tetrazine; for krel: relative to 5b, PBS, 25° C. The method, then: Solutions (5 mL) of tetrazines 5b, 6c, 5l, 6a and 4f (0.050 mM) were prepared in PBS buffer (pH 7.4). Solutions (10 mL) of eq-5-hydroxy-trans-cyclooctene (0.50, 0.60, 0.70, 0.80 mM) were prepared in PBS buffer (pH 7.4). The reactions between tetrazines and trans-cyclooctene were measured under pseudo-first order conditions using SX 18MV-R stopped-flow spectrophotometer (Applied Photophysics Ltd.). Each solution of tetrazine and trans-cyclooctene were injected in equal volumes via 3 mL syringes into the stopped-flow instrument at 25° C., resulting in final concentration of 0.025 mM of tetrazines and 0.25, 0.30, 0.35, 0.40 mM trans-cyclooctene. The reaction was monitored by the decay of absorbance associated with the tetrazines (5b at 263 nm, 6c at 268 nm, 5l at 274 nm, 6a at 296 nm, 4f at 266 nm). Reaction were repeated in triplicate. With Prism software, an observed rate constant, kobs, was obtained by nonlinear regression. Second order rate constants, k2, were calculated by linear regression between kobs and final concentration of trans-cyclooctene.

The nature of data set [2]: Experimental log P. The data set is classed as physicochemical.
Data set [3] can be described thus: Tetrazine stability in PBS buffer in ambient light at 25° C. The data set is classed as physicochemical. The conditions noted are these: PBS buffer pH 7.4, ambient light, day 0-5. The method, then: Solutions (3 mL) of tetrazine 5b, 5l and 6c (400 μM) were prepared in PBS buffer (pH 7.4) in vials and stored in ambient light at 25° C. Tetrazine concentrations were determined by recording the absorbance at 518 nm (6c) and 520 nm (5b and 5l) in cuvettes in day 0, 1, 3 and 5. A solution of 6a (50 μM) was prepared in PBS buffer (pH 7.4) in vials and stored in ambient light at room temperature. Tetrazine concentration was determined by recording the absorbance at 520 nm in cuvettes at day 0, 1, 3 and 5.

For data set [4], the target named is T1, human MAGL enzyme (Homo sapiens, UniProt Q99685).
T1 sequence (Q99685 1-303): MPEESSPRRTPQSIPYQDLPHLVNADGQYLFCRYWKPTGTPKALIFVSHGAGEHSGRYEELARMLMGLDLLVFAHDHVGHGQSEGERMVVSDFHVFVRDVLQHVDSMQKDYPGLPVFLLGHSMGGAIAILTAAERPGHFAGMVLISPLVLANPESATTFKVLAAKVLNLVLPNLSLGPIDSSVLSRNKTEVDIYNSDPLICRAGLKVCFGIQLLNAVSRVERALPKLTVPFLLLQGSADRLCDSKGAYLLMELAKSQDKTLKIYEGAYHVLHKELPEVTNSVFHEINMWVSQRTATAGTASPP
Description: MAGL in vitro activity assay (7-HCA substrate, fluorescence). The conditions noted are these: human MAGL pre-treated 30 min at room temperature, 7-HCA substrate 1 h; read-out: IC50, inhibition of MAGL activity in vitro. The data set is classed as biochemical. The method, then: MAGL in vitro activity assay. The MAGL in vitro activity assay was performed based on a reported protocol. Briefly, human MAGL enzyme was pre-treated with compounds at room temperature for 30 min, and subsequently incubated with 7-hydroxycoumarinyl arachidonate (7-HCA) as a substrate at room temperature for 1 h. The fluorescence signals were measured on an Envision plate reader (excitation 355 nm, emission 460 nm).

The nature of data set [5]: Stopped-flow kinetic analysis of MAGL tetrazines with eq-5-hydroxy-trans-cyclooctene in MeOH at 25° C. The conditions noted are these: for kobs: 0.04 mM tetrazine, 0.40 mM trans-cyclooctene, MeOH; for kobs / krel: 25° C.; for krel: relative to 12, MeOH. The method, then:
Solutions (3 mL) of tetrazines 100a, 100b, 100c and 12 (0.080 mM) was prepared in MeOH. Solutions (3 mL) of eq-5-hydroxy-trans-cyclooctene (0.80 mM) were prepared in MeOH. The reactions between tetrazines and trans-cyclooctene were measured under pseudo-first order conditions using SX 18MV-R stopped-flow spectrophotometer (Applied Photophysics Ltd.). Each solution of tetrazine and trans-cyclooctene were injected in equal volumes via 3 mL syringes into the stopped-flow instrument at 25° C., resulting in final concentration of 0.04 mM of tetrazines and 0.40 mM trans-cyclooctene. The reaction was monitored by the decay of absorbance associated with the tetrazines (10a and 10b at 300 nm, 10c at 280 nm). Reaction were repeated in triplicate. With Prism software, an observed rate constant, kobs, was obtained by nonlinear regression.

Data set [6] concerns the target T2, endogenous MAGL (Homo sapiens, UniProt Q99685).
T2 sequence (Q99685 1-303): T1 sequence (Q99685 1-303)
Description: Labeling of endogenous MAGL in live cells, gel-based ABPP with TCO-TAMRA. Format: cell-based. The method, then: Cell culture and probe treatment. Human brain vascular pericytes were cultured in Dulbecco's Modified Eagle Medium/Nutrient Mixture F-12 (DMEM/F-12) GlutaMAX media supplemented with 5% heat-inactivated fetal bovine serum (HI FBS), 1× pericyte growth supplement (PGS), and 1× penicillin-streptomycin at 37° C. with 5% CO2 in a humidified environment. Probe treatment was performed in duplicates. Cells were plated in 6-well plates and cultured overnight in growth media. Live cells were then treated with 300 nM KML29 as a competitor compound (or DMSO as a control) at 37° C. for 1 h. Cells were subsequently treated with probe 9 (0.3 nM-3.2 μM) at 37° C. for 1 h (cells pre-treated with KML29 were treated with 32 nM of probe 9), after which the cells were washed with fresh growth media. The media were then placed with fresh media containing 2 μM of TCO-TAMRA, and the cells were incubated at 37° C. for 30 min. To quench the reaction, the media were replaced with PBS containing 100 μM tetrazine amine, and the cells were washed with cold PBS and harvested with a scrapper. The suspensions were centrifuged at 10,000×g for 1 min at 37° C., and the cell pellets were lysed in PBS containing 0.25% sodium dodecyl sulfate (SDS) with sonication. The protein concentration was measured with a bicinchoninic acid (BCA) assay kit (Thermo Scientific) and normalized. In-gel fluorescence and data analysis. The proteomes were analyzed with 1.0 mm thick 4-12% bis-tris 15-well protein gels in 2-(N-morpholino)ethanesulfonic acid (MES) buffer. The gels were scanned with a Typhoon FLA 9500 Biomolecular Imager (GE Healthcare) with the TAMRA channel with 532 nm excitation and a 575 nm long pass emission filter. To measure the total protein loading, the gels were treated with ClearPage Instant Blue (CBS Scientific) overnight, and after brief destaining with water, scanned with an Odyssey Imager (Li-COR) at the 700 nm channel. The in-gel fluorescence images were processed with ImageJ software (v1.47, NIH), and the intensities were quantified with Image Studio (v5.2, Li-COR) with background subtraction. The coomassie images were processed and quantified with the Image Studio software with background subtraction. For analysis of the cellular potency, the in-gel fluorescence intensities of the two MAGL bands were averaged, normalized with the total coomassie intensity of the corresponding sample, and fitted with a dose-response equation with Prism v7.02 (GraphPad). […] The media were then placed with fresh media containing 2 μM of TCO-TAMRA, and the cells were incubated at 37° C. for 30 min. […] The protein concentration was measured with a bicinchoninic acid (BCA) assay kit (Thermo Scientific) and normalized. In-gel fluorescence and data analysis. […]

Data set [7] can be described thus: Stopped-flow kinetics of 9 versus 10 with axial 5-hydroxy-trans-cyclooctene in methanol. The conditions noted are these: 25° C.; for kobs, average rate constant: 0.05 mM tetrazine, 0.5 mM trans-cyclooctene. The method, then: 0.1 mM solutions (10 mL) in methanol were prepared from stock solutions of 9 (16.3 mg in 632 μL DMF, 50 mM) and 10 (10.0 mg in 422 μL MeOH, 100 mM). A 1.0 mM solution (25 mL) in methanol of axial 5-hydroxy-trans-cyclooctene 11 was also prepared from a stock solution (29.0 mg in 460 μL MeOH, 500 mM). The reaction between tetrazine and a trans-cyclooctene was measured under pseudo-first order conditions using a SX 18MV-R stopped-flow spectrophotometer (Applied Photophysics Ltd.). The 0.1 mM solution of tetrazines 9 or 10 and the 1.0 mM solution of trans-cyclooctene 11 were injected as equal volumes via syringe into the stopped-flow instrument which was held at 25° C., resulting in a final concentration of the tetrazine of 0.05 mM and a final concentration of the trans-cyclooctene of 0.5 mM. The reaction was monitored by the absorbance decay of tetrazine measured at 290 nm. Data points were collected every 0.1 second for 400 seconds and reaction was repeated in triplicate. Prism software was used to obtain the observed rate of each reaction, kobs, which was determined by nonlinear regression analysis resulting in average rate constants of 0.01033 s^−1 for 9 and 0.00975 s^−1 for 10. The relative rate, krel, of 9 versus 10 was thus determined to be 1.06.

What is called logP is the decadic logarithm of the partition coefficient of the neutral form, usually between octanol and water. Read a low logP as lower lipophilicity. Broadly, the IC50 is the concentration that inhibits the measured activity by half.

Structures are written as SMILES. Values joined by “and” are separate entries in the source; they are usually repeats but may differ in a detail not shown here. Identical values can stand only once.

As for `COC(=O)CCc1nncnn1` [4f, methyl 3-(1,2,4,5-tetrazin-3-yl)propanoate], in data set [1], the “k2, second order rate constant” value was determined as 1591 ± 25.74 M⁻¹ s⁻¹. Further, the kobs in data set [1] (TCO 0.25 mM) stood at 0.53 s⁻¹; in data set [1] (TCO 0.30 mM) it was 0.61 s⁻¹; in data set [1] (TCO 0.35 mM), 0.68 s⁻¹; in data set [1] (TCO 0.40 mM) it was 0.77 s⁻¹. In data set [1], this compound gave a krel of 8.0.

As for `COC(=O)CCc1nnc(-c2cccc(C#N)c2)nn1` [5i, methyl 3-(6-(3-cyanophenyl)-1,2,4,5-tetrazin-3-yl)propanoate], in data set [1], the “k2, second order rate constant” value was determined as 69.88 ± 4.824 M⁻¹ s⁻¹. Also, the kobs in data set [1] (TCO 0.25 mM) amounted to 0.21 s⁻¹; in data set [1] (TCO 0.30 mM), 0.24 s⁻¹; in data set [1] (TCO 0.35 mM), 0.029 s⁻¹; in data set [1] (TCO 0.40 mM), 0.032 s⁻¹. This compound also yielded a krel in data set [1] of 0.35.

As for `COC(=O)CCc1nnc(-c2ccoc2)nn1` [5l, methyl 3-(6-(furan-3-yl)-1,2,4,5-tetrazin-3-yl)propanoate], in data set [1] (reaction with 5-hydroxyTCO), the “times less reactive than 5b” value is listed as 2.9 times. The same compound yielded a lipophilicity (logP) in data set [2] of 1.2. Also, the decomposition per day in data set [3] is recorded as 1.7%.

Take `C=C(OCC)c1nnc(-c2ccccc2)nn1` [6a, 3-(1-ethoxyvinyl)-6-phenyl-1,2,4,5-tetrazine]: the “k2, second order rate constant” value in data set [1] came out at 2007 ± 101.3 M⁻¹ s⁻¹. The kobs was determined as 0.52 s⁻¹ in data set [1] (TCO 0.25 mM), 0.62 s⁻¹ in data set [1] (TCO 0.30 mM), 0.70 s⁻¹ in data set [1] (TCO 0.35 mM) and 0.83 s⁻¹ in data set [1] (TCO 0.40 mM). This compound displayed a krel in data set [1] of 10. This compound also had a decomposition per day in data set [3] of 0.8%.

Turning to `O=C(OC(C(F)(F)F)C(F)(F)F)N1CCC(CNS(=O)(=O)c2ccc(-c3nnc(-c4ccoc4)nn3)cc2)CC1` [100a, 1,1,1,3,3,3-hexafluoropropan-2-yl 4-((4-(6-(furan-3-yl)-1,2,4,5-tetrazin-3-yl)phenylsulfonamido)methyl)piperidine-1-carboxylate], the IC50 in data set [4] was 12 nM. In data set [5], this compound showed a kobs of 0.003623 s⁻¹ and a krel of 3.

Take `C=C(OCC)c1nnc(-c2ccc(S(=O)(=O)NCC3CCN(C(=O)OC(C(F)(F)F)C(F)(F)F)CC3)cc2)nn1` [100b, 1,1,1,3,3,3-hexafluoropropan-2-yl 4-((4-(6-(1-ethoxyvinyl)-1,2,4,5-tetrazin-3-yl)phenylsulfonamido)methyl)piperidine-1-carboxylate]: the IC50 in data set [4] is 46 nM. In addition, in data set [5], the kobs was determined as 0.031 s⁻¹ and the krel stood at 25. Also, in data set [5] (stopped flow kinetics with 5-hydroxyTCO), the “fold more reactive than 100a” value was 8.6 fold.

Consider `O=C(OC(C(F)(F)F)C(F)(F)F)N1CCC(C(O)(c2ccc3c(c2)OCO3)c2ccc3c(c2)OCO3)CC1` [KML29, reference compound], for which the “competition of probe 9 labeling of MAGL” value in data set [6] (probe 9 32 nM 1 h after pre-treatment with KML29 300 nM 1 h) is listed as “competed”.

As for `Cc1nnc(-c2ccc(-n3ccc(C4CCN(C(=O)OC(C(F)(F)F)C(F)(F)F)CC4)n3)cc2)nn1` [compound 9, 1,1,1,3,3,3-hexafluoropropan-2-yl 4-(1-(4-(6-methyl-1,2,4,5-tetrazin-3-yl)phenyl)-1H-pyrazol-3-yl)piperidine-1-carboxylate], in data set [4], the IC50 was determined as 31 nM. In data set [7], the “kobs, average rate constant” value stood at 0.01033 s⁻¹; the “krel of 9 versus 10” value is 1.1 and 1.06. For the same compound, the “off-target labeling in live cells” value in data set [6] (human brain vascular pericytes, in-gel fluorescence, consistent with ABHD6) is on record as “labeled an additional protein at ˜35 kDa”. Further, the half-maximal inhibitory concentration (IC50) in data set [6] (human brain vascular pericytes, probe 1 h, then 2 μM TCO-TAMRA 30 min, in-gel fluorescence, read-out: cellular IC50 of MAGL labeling) stood at 8 nM.

As for `Cc1nnc(-c2ccc(CN)cc2)nn1` [compound 10, 3-methyl-6-(4-aminomethyl)tetrazine, reference compound], in data set [7], the “kobs, average rate constant” value was determined as 0.00975 s⁻¹.

The values above are taken from US11767302B2, “Reagents and methods for tetrazine synthesis” (University of Delaware, priority 2020, dated 2023).
